Where two headings read alike, the source gives them in different places. Starred links: 1 amine or outer side, 2 acyl side, 3 side chain; linkers in the order of their positions; H or OH if unused. Non-standard residues stand in square brackets, D forms with d. Residues, ends and D or L forms follow the SMILES beside them. Groups on a side chain read outwards from the residue. *: point of attachment. C20 diacid = O=C(O)CCCCCCCCCCCCCCCCCCC(=O)*; γGlu = O=C(O)[C@H](CCC(=O)[*:2])N[*:1]; NMeI = CC[C@H](C)[C@H](NC)C(=O)O; Nle = CCCC[C@H](N)C(=O)O; AEEA = NCCOCCOCC(=O)O; Aib = CC(C)(N)C(=O)O
Key:
[1] = target: T1, hCRHR1 (Homo sapiens, UniProt P34998); assay: HTRF cAMP assay, determination of hCRHR1 potency (peptide libraries 5 conc., purified peptides 11 conc.); format: cell-based
T1 sequence (P34998 24-415): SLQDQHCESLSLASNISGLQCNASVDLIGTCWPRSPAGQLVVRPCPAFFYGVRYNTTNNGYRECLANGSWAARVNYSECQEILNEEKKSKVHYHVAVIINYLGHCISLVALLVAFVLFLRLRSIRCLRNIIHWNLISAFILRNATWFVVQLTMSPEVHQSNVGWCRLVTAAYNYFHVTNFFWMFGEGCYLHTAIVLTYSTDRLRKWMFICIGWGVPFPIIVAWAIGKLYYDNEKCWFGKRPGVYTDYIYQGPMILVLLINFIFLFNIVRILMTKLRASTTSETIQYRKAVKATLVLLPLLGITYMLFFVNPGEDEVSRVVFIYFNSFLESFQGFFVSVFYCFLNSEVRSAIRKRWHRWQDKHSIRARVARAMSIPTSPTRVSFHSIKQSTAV
How it was run: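 CHO-K1 cells stably expressing human CRHR1, thawed from frozen stocks just before use, were stimulated in suspension with agonist peptides. cAMP was measured by HTRF competitive immunoassay (cryptate anti-cAMP antibody vs d2-cAMP).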

[2] = target: T2, hCRHR2 (Homo sapiens, UniProt Q13324); assay: HTRF cAMP assay, determination of hCRHR2 potency (peptide libraries 5 conc., purified peptides 11 conc.); format: cell-based
T2 sequence (Q13324 1-411): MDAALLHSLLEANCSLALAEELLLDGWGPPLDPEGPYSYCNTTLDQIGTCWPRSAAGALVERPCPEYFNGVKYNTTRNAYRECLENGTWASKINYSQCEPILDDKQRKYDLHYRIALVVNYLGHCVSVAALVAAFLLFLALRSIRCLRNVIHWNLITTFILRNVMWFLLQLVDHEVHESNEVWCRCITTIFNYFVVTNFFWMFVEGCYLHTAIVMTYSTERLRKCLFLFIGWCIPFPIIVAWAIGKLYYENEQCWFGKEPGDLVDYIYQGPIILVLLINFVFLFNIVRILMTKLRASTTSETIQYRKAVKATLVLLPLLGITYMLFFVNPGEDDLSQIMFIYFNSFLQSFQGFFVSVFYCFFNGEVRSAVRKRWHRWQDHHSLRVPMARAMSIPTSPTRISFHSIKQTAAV
How it was run: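 Potency was read as cAMP accumulation in a stable CHO-K1 line expressing human CRHR2, used in suspension right after thawing. Detection relied on energy transfer from antibody-bound cryptate to d2-cAMP.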

[3] = Table 4, library peptides having X^38 = Nle, read-out: hCRHR1 pEC50 (converted)
[4] = Table 4, library peptides having X^38 = Nle, read-out: hCRHR2 pEC50 (converted)

EC50 [1, 3] [nM] | EC50 [2, 4] [nM] | SMILES | further results
 |  | CCCC[C@H](NC(=O)[C@@H](NC(=O)[C@H](CCC(=O)O)NC(=O)[C@H](C)NC(=O)[C@H](CC(N)=O)NC(=O)[C@@H](NC(=O)[C@H](CCCCNC(=O)COCCOCCNC(=O)COCCOCCNC(=O)CC[C@H](NC(=O)CC[C@H](NC(=O)CCCCCCCCCCCCCCCCCCC(=O)O)C(=O)O)C(=O)O)NC(=O)[C@H](C)NC(=O)[C@H](CCC(N)=O)NC(=O)[C@H](CCC(N)=O)NC(=O)[C@H](CCCNC(=N)N)NC(=O)[C@H](C)NC(=O)[C@H](C)NC(=O)[C@H](CCCNC(=N)N)NC(=O)[C@H](C)NC(=O)[C@H](CCCNC(=N)N)NC(=O)[C@H](C)NC(=O)[C@H](CCC(N)=O)NC(=O)[C@H](CCC(=O)O)NC(=O)[C@H](CC(C)C)NC(=O)[C@H](CC(C)C)NC(=O)[C@@H](NC(=O)[C@H](CCC(N)=O)NC(=O)[C@H](CC(C)C)NC(=O)[C@H](CC(C)C)NC(=O)CNC(=O)[C@@H](NC(=O)[C@@H]1CCCN1C(=O)[C@@H](NC(=O)[C@H](CC(=O)O)NC(=O)[C@H](CC(C)C)NC(=O)[C@H](CO)NC(=O)[C@H](CC(C)C)NC(=O)[C@@H](NC(=O)[C@@H](N)[C@@H](C)CC)C(C)C)C(C)C)[C@@H](C)CC)[C@@H](C)CC)[C@@H](C)O)[C@@H](C)CC)C(=O)N[C@@H](C)C(=O)N[C@@H](CCC(=O)O)C(=O)N[C@H](C(N)=O)[C@@H](C)CC [SEQ ID NO: 28] (H-IVLSLDVPIGLLQILLEQARARAARQQAK([AEEA-AEEA-γGlu-γGlu-C20 diacid])TNAEI[Nle]AEI-NH2) | EC50 ([1]; Table 3, matched molecular pairs X^38 L vs Nle, peptide library of Example 4, read-out: hCRHR1 pEC50 (converted)): 1260 nM; EC50 ([2]; Table 3, matched molecular pairs X^38 L vs Nle, peptide library of Example 4, read-out: hCRHR2 pEC50 (converted)): 0.158 nM
50100 | 0.158 | CCCC[C@H](NC(=O)[C@@H](NC(=O)[C@H](CCC(=O)O)NC(=O)[C@H](C)NC(=O)[C@H](CC(N)=O)NC(=O)C(C)(C)NC(=O)[C@H](CCCCNC(=O)COCCOCCNC(=O)COCCOCCNC(=O)CC[C@H](NC(=O)CC[C@H](NC(=O)CCCCCCCCCCCCCCCCCCC(=O)O)C(=O)O)C(=O)O)NC(=O)[C@H](C)NC(=O)[C@H](CCC(N)=O)NC(=O)[C@H](CCC(=O)O)NC(=O)[C@H](CCCNC(=N)N)NC(=O)[C@H](C)NC(=O)[C@H](C)NC(=O)[C@H](CCCNC(=N)N)NC(=O)[C@H](C)NC(=O)[C@H](CCCNC(=N)N)NC(=O)[C@H](C)NC(=O)[C@H](CCC(N)=O)NC(=O)[C@H](CCCNC(=N)N)NC(=O)[C@H](CC(C)C)NC(=O)[C@H](CC(C)C)NC(=O)[C@@H](NC(=O)[C@H](CCC(N)=O)NC(=O)[C@H](CC(C)C)NC(=O)[C@H](CC(C)C)NC(=O)CNC(=O)[C@@H](NC(=O)[C@@H]1CCCN1C(=O)[C@@H](NC(=O)[C@H](CC(=O)O)NC(=O)[C@H](CC(C)C)NC(=O)[C@H](CO)NC(=O)[C@H](CC(C)C)NC(=O)[C@@H](NC(=O)[C@@H](NC)[C@@H](C)CC)C(C)C)C(C)C)[C@@H](C)CC)[C@@H](C)CC)[C@@H](C)CC)C(=O)N[C@@H](C)C(=O)N[C@@H](CCC(=O)O)C(=O)N[C@H](C(N)=O)C(C)C [compound 232] (H-[NMeI]VLSLDVPIGLLQILLRQARARAAREQAK([AEEA-AEEA-γGlu-γGlu-C20 diacid])[Aib]NAEI[Nle]AEV-NH2) | 
3160 | 0.0398 | CCCC[C@H](NC(=O)[C@@H](NC(=O)[C@H](CCC(=O)O)NC(=O)[C@H](C)NC(=O)[C@H](CC(N)=O)NC(=O)C(C)(C)NC(=O)[C@H](CCCCNC(=O)COCCOCCNC(=O)COCCOCCNC(=O)CC[C@H](NC(=O)CC[C@H](NC(=O)CCCCCCCCCCCCCCCCCCC(=O)O)C(=O)O)C(=O)O)NC(=O)[C@H](C)NC(=O)[C@H](CCC(N)=O)NC(=O)[C@H](CCC(=O)O)NC(=O)[C@H](CCCNC(=N)N)NC(=O)[C@H](C)NC(=O)[C@H](C)NC(=O)[C@H](CCCNC(=N)N)NC(=O)[C@H](C)NC(=O)[C@H](CCCNC(=N)N)NC(=O)[C@H](C)NC(=O)[C@H](CCC(N)=O)NC(=O)[C@H](CCCCN)NC(=O)[C@H](CC(C)C)NC(=O)[C@H](CC(C)C)NC(=O)[C@@H](NC(=O)[C@H](CCC(N)=O)NC(=O)[C@H](CC(C)C)NC(=O)[C@H](CC(C)C)NC(=O)CNC(=O)[C@@H](NC(=O)[C@@H]1CCCN1C(=O)[C@@H](NC(=O)[C@H](CC(=O)O)NC(=O)[C@H](CC(C)C)NC(=O)[C@H](CO)NC(=O)[C@H](CC(C)C)NC(=O)[C@@H](NC(=O)[C@@H](NC)[C@@H](C)CC)C(C)C)C(C)C)[C@@H](C)CC)[C@@H](C)CC)[C@@H](C)CC)C(=O)N[C@@H](C)C(=O)N[C@@H](CCC(=O)O)C(=O)N[C@H](C(N)=O)C(C)C [compound 233] (H-[NMeI]VLSLDVPIGLLQILLKQARARAAREQAK([AEEA-AEEA-γGlu-γGlu-C20 diacid])[Aib]NAEI[Nle]AEV-NH2) | 
 |  | CC[C@H](C)[C@H](N)C(=O)N[C@H](C(=O)N[C@@H](CC(C)C)C(=O)N[C@@H](CO)C(=O)N[C@@H](CC(C)C)C(=O)N[C@@H](CC(=O)O)C(=O)N[C@H](C(=O)N1CCC[C@H]1C(=O)N[C@H](C(=O)NCC(=O)N[C@@H](CC(C)C)C(=O)N[C@@H](CC(C)C)C(=O)N[C@@H](CCC(N)=O)C(=O)N[C@H](C(=O)N[C@@H](CC(C)C)C(=O)N[C@@H](CC(C)C)C(=O)N[C@@H](CCC(=O)O)C(=O)N[C@@H](CCC(N)=O)C(=O)N[C@@H](C)C(=O)N[C@@H](CCCNC(=N)N)C(=O)N[C@@H](C)C(=O)N[C@@H](CCC(N)=O)C(=O)N[C@@H](C)C(=O)N[C@@H](C)C(=O)N[C@@H](CCCNC(=N)N)C(=O)N[C@@H](CCC(=O)O)C(=O)N[C@@H](CCC(N)=O)C(=O)N[C@@H](C)C(=O)N[C@@H](CCCCNC(=O)COCCOCCNC(=O)COCCOCCNC(=O)CC[C@H](NC(=O)CC[C@H](NC(=O)CCCCCCCCCCCCCCCCCCC(=O)O)C(=O)O)C(=O)O)C(=O)N[C@H](C(=O)N[C@@H](CC(N)=O)C(=O)N[C@@H](C)C(=O)N[C@@H](CCC(=O)O)C(=O)N[C@H](C(=O)N[C@@H](CC(C)C)C(=O)N[C@@H](C)C(=O)N[C@@H](CCC(=O)O)C(=O)N[C@H](C(N)=O)C(C)C)[C@@H](C)CC)[C@@H](C)O)[C@@H](C)CC)[C@@H](C)CC)C(C)C)C(C)C [compound 62] (H-IVLSLDVPIGLLQILLEQARAQAAREQAK([AEEA-AEEA-γGlu-γGlu-C20 diacid])TNAEILAEV-NH2) | EC50 ([1]; library peptides, matched molecular pairs L vs Nle in position X^38, read-out: Potency hCRHR1 pEC50 (converted)): 25100 nM; EC50 ([2]; library peptides, matched molecular pairs L vs Nle in position X^38, read-out: Potency hCRHR2 pEC50 (converted)): 0.316 nM
